# Target: GST-hRIPK1 (8-327) (Homo sapiens (Human), UniProt Q13546)
# Experiment: Fluorescent Polarization Binding (FP Binding) assay, RIPK1
# Conditions: 10 nM GST-hRIPK1 (8-327), 5 nM fluorescent-labeled ligand, RT, 30 min, mean of minimum two experiments
# Description: Fluorescent Polarization Binding (FP Binding) assay (Berger S. B. et al. (2015) Cell Death Discovery, 1: 15009; Maki J. L. et al. (2012) Anal Biochem., 427 (2): 164-174) was performed in polystyrene low volume 384-well black plate, at Room Temperature (RT) in a final volume of 10.1 μL/well using 10 nM of GST-hRIPK1 (8-327) enzyme and 5 nM of fluorescent-labeled ligand (14-(2-{[3-({2-{[4-(cyanomethyl)phenyl]amino}-6-[(5-cyclopropyl-1H-pyrazol-3-yl)amino]-4-pyrimidinyl}amino) propyl]amino}-2-oxoethyl)-16,16,18,18-tetramethyl-6,7,7a,8a,9,10,16,18-octahydrobenzo [2″,3″]indolizino[8″,7″:5′,6′]pyrano [3′,2′:3,4]pyrido[1,2-a]indol-5-ium-2-sulfonate.
# Test compounds were serially diluted in DMSO at 100 fold final concentrations in the assay (1% DMSO final). In each well of a 384-well Plate were dispensed 0.1 μL of compound solution (or DMSO for controls) followed by 5 μL of GST-hRIPK1 (8-327) at twice the final concentrations in assay buffer (50 mM HEPES pH 7.5, 10 mM NaCl, 50 mM MgCl2, 0.02% CHAPS, 0.5 mM DTT and 0.01% Pluronic F127). For negative control the enzyme addition was replaced by assay buffer only.
# After addition of 5 μL of fluorescent-labeled ligand at twice the final concentrations in assay buffer, the plate was incubated at RT for […]. At the end, the binding was measured as FP value with the Envision (PerkinElmer) plate reader using filter for an excitation λ=531 nm FP and an emission λ=595 nm FP (S & P-pol).
# Test compound inhibition was expressed as percent inhibition of internal assay controls. For concentration response curves, normalized data is fit and IC50 determined using XL-fit (IDBS) for Excel. IC50 were averaged to determine a mean value, for a minimum of two independent experiments.
# Receptor interacting protein kinase 1 activity of exemplary compounds was determined according to the above general procedures.
# Chain of GST-hRIPK1 (8-327) (Q13546 8-327): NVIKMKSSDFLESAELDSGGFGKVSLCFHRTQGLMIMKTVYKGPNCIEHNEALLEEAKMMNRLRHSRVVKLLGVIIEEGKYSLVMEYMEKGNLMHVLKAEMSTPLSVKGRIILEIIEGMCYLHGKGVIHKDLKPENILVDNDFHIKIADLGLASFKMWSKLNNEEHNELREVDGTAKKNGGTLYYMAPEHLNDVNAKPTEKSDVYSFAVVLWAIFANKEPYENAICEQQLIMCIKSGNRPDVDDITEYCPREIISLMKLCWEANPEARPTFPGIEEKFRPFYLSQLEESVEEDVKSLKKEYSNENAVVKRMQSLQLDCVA
row,SMILES,IC50 [nM]
1,"O=C1N2C(c3cncc(F)c3)CCN2CCCC12CC2 (racemic) [Example 16, 3-(5-fluoro-3-pyridyl)spiro[1,2,3,7,8,9-hexahydropyrazolo[1,2-a]diazepine-6,1′-cyclopropane]-5-one]",1000 to 30000
2,"CCC1(C(F)F)CCCN2CCC(c3cnc(C)cn3)N2C1=O (racemic) [Example 18, 6-(difluoromethyl)-6-ethyl-3-(5-methylpyrazin-2-yl)-1,2,3,7,8,9-hexahydropyrazolo[1,2-a]diazepin-5-one]",< 1000
3,"Cc1cnc(C2CCN3CCCC(C)(C(F)F)C(=O)N23)cn1 (single isomer, unassigned) [Example 12, 6-(difluoromethyl)-6-methyl-3-(5-methylpyrazin-2-yl)-1,2,3,7,8,9-hexahydropyrazolo[1,2-a]diazepin-5-one]",< 1000
4,"Cc1cnc(C2CCN3CCCC(C)(C(F)F)C(=O)N23)cn1 (single isomer, unassigned) [Example 13, 6-(difluoromethyl)-6-methyl-3-(5-methylpyrazin-2-yl)-1,2,3,7,8,9-hexahydropyrazolo[1,2-a]diazepin-5-one]",< 1000
5,"CC1(C(F)F)CCCN2CCC(c3cncc(C#N)c3)N2C1=O (single isomer, unassigned) [Example 14, 5-[6-(difluoromethyl)-6-methyl-5-oxo-1,2,3,7,8,9-hexahydropyrazolo[1,2-a]diazepin-3-yl]pyridine-3-carbonitrile]",< 1000
6,"CC1(C(F)F)CCCN2CCC(c3cncc(C#N)c3)N2C1=O (single isomer, unassigned) [Example 15, 5-[6-(difluoromethyl)-6-methyl-5-oxo-1,2,3,7,8,9-hexahydropyrazolo[1,2-a]diazepin-3-yl]pyridine-3-carbonitrile]",< 1000
7,"CCC1(C(F)F)CCCN2CCC(c3cnc(C)cn3)N2C1=O (single isomer, unassigned) [Example 17, 6-(difluoromethyl)-6-ethyl-3-(5-methylpyrazin-2-yl)-1,2,3,7,8,9-hexahydropyrazolo[1,2-a]diazepin-5-one]",< 1000
8,"CCC1(C)COC[C@H]2CC[C@@H](c3cccc(F)c3)N2C1=O (stereo partly drawn) [Example 8, (7S,9aR)-4-ethyl-7-(3-fluorophenyl)-4-methyl-1,3,7,8,9,9a-hexahydropyrrolo[2,1-c][1,4]oxazepin-5-one]",1000 to 30000

# More lines, now with the values ahead:
row,IC50 [nM],SMILES
1,< 1000,"CC1(C)CCCN2CCC(c3cncc(F)c3)N2C1=O (racemic) [Example 1, 3-(5-fluoro-3-pyridyl)-6,6-dimethyl-1,2,3,7,8,9-hexahydropyrazolo[1,2-a]diazepin-5-one]"
2,< 1000,"CC1(C)CCCN2CCC(c3cncc(C#N)c3)N2C1=O (racemic) [Example 9, 5-(6,6-dimethyl-5-oxo-1,2,3,7,8,9-hexahydropyrazolo[1,2-a]diazepin-3-yl)pyridine-3-carbonitrile]"
3,< 1000,"CC1(C(F)F)CCCN2CCC(c3cncc(F)c3)N2C1=O (racemic) [Example 11, 6-(difluoromethyl)-3-(5-fluoro-3-pyridyl)-6-methyl-1,2,3,7,8,9-hexahydropyrazolo[1,2-a]diazepin-5-one]"
4,< 1000,"Cc1cnc(C2CCN3CCCC(C)(C)C(=O)N23)cn1 (single isomer, unassigned) [Example 2, 6,6-dimethyl-3-(5-methylpyrazin-2-yl)-1,2,3,7,8,9-hexahydropyrazolo[1,2-a]diazepin-5-one]"
5,< 1000,"CC1(C)CCCN2CCC(c3cc(F)cc(F)c3)N2C1=O (single isomer, unassigned) [Example 3, 3-(3,5-difluorophenyl)-6,6-dimethyl-1,2,3,7,8,9-hexahydropyrazolo[1,2-a]diazepin-5-one]"
6,< 1000,"CC1(C)CCCN2CCC(c3ccc(F)c(F)c3)N2C1=O (single isomer, unassigned) [Example 4, 3-(3,4-difluorophenyl)-6,6-dimethyl-1,2,3,7,8,9-hexahydropyrazolo[1,2-a]diazepin-5-one]"
7,< 1000,"CC1(C)CCCN2CCC(c3cccc(F)c3)N2C1=O (single isomer, unassigned) [Example 5, 3-(3-fluorophenyl)-6,6-dimethyl-1,2,3,7,8,9-hexahydropyrazolo[1,2-a]diazepin-5-one]"
8,< 1000,"CC1(C(F)F)CCCN2CCC(c3cncc(F)c3)N2C1=O (single isomer, unassigned) [Example 10, 6-(difluoromethyl)-3-(5-fluoro-3-pyridyl)-6-methyl-1,2,3,7,8,9-hexahydropyrazolo[1,2-a]diazepin-5-one]"
9,< 1000,"CC1(C)CCCN2CCC(c3cc(F)cc(C#N)c3)N2C1=O (stereo not drawn) [Example 6, 3-(6,6-dimethyl-5-oxo-1,2,3,7,8,9-hexahydropyrazolo[1,2-a]diazepin-3-yl)-5-fluoro-benzonitrile]"
10,< 1000,"CC1(C)CCCN2CCC(c3ccc(C#N)cc3)N2C1=O (stereo not drawn) [Example 7, 4-(6,6-dimethyl-5-oxo-1,2,3,7,8,9-hexahydropyrazolo[1,2-a]diazepin-3-yl)benzonitrile]"

# — patent US11174262B2, “Compounds, compositions and methods” (Denali Therapeutics Inc., priority 2017, dated 2021)
